Measured values taken from the NIST ThermoML archive (doi:10.1016/j.jct.2012.11.014).

Experiment: xn = mol fraction of the nth substance listed
Details: 101 kPa, Liquid; for speed of sound: Frequency=2 MHz, Linear variable-path acoustic interferometer; for viscosity: Oscillating disk viscometry; for mass density: Vibrating tube method

C[NH+](C)C.O=S(=O)([O-])O [trimethylammonium hydrogen sulfate] + C[S+](C)[O-]
Details	mass density [kg/m3]	speed of sound [m/s]	viscosity [mPa·s]
298.15 K, x1 = 0.013	1102.89	1498	2.07
298.15 K, x1 = 0.0356	1115.76	1499	2.23
298.15 K, x1 = 0.0539	1125.92	1501	2.36
298.15 K, x1 = 0.0982	1149.81	1504	2.62
298.15 K, x1 = 0.1259	1164.24	1507	2.75
298.15 K, x1 = 0.1608	1181.78	1511	2.91
298.15 K, x1 = 0.1982	1199.92	1514	3.09
298.15 K, x1 = 0.2422	1220.26	1519	3.3
298.15 K, x1 = 0.2956	1243.91	1522	3.52
298.15 K, x1 = 0.3855	1281.02	1528	3.84
298.15 K, x1 = 0.4611	1309.82	1533	4.07
298.15 K, x1 = 0.545	1339.48	1536	4.3
298.15 K, x1 = 0.6387	1370.13	1542	4.51
298.15 K, x1 = 0.7076	1391.08	1546	4.64
298.15 K, x1 = 0.7823	1412.52	1548	4.78
298.15 K, x1 = 0.8444	1429.25	1552	4.86
298.15 K, x1 = 0.907	1445.39	1556	4.95
298.15 K, x1 = 0.9524	1456.38	1559	5.02
298.15 K, x1 = 1	1467.58	1564	5.1
303.15 K, x1 = 0.013	1099.96	1475	1.89
303.15 K, x1 = 0.0356	1112.84	1477	2.03
303.15 K, x1 = 0.0539	1122.95	1479	2.15
303.15 K, x1 = 0.0982	1146.81	1485	2.39
303.15 K, x1 = 0.1259	1161.18	1488	2.54
303.15 K, x1 = 0.1608	1178.69	1492	2.69
303.15 K, x1 = 0.1982	1196.87	1496	2.85
303.15 K, x1 = 0.2422	1217.02	1501	3.02
303.15 K, x1 = 0.2956	1240.65	1506	3.22
303.15 K, x1 = 0.3855	1277.68	1514	3.51
303.15 K, x1 = 0.4611	1306.38	1522	3.71
303.15 K, x1 = 0.545	1336.01	1528	3.88
303.15 K, x1 = 0.6387	1366.49	1532	4.05
303.15 K, x1 = 0.7076	1387.36	1538	4.15
303.15 K, x1 = 0.7823	1408.73	1540	4.26
303.15 K, x1 = 0.8444	1425.42	1545	4.32
303.15 K, x1 = 0.907	1441.51	1551	4.38
303.15 K, x1 = 0.9524	1452.45	1556	4.43
303.15 K, x1 = 1	1463.57	1560	4.48
308.15 K, x1 = 0.013	1093.72	1462	1.75
308.15 K, x1 = 0.0356	1106.81	1466	1.88
308.15 K, x1 = 0.0539	1116.99	1469	1.99
308.15 K, x1 = 0.0982	1141.18	1476	2.23
308.15 K, x1 = 0.1259	1155.67	1478	2.35
308.15 K, x1 = 0.1608	1173.53	1484	2.51
308.15 K, x1 = 0.1982	1191.94	1490	2.67
308.15 K, x1 = 0.2422	1212.56	1494	2.82
308.15 K, x1 = 0.2956	1236.49	1500	3
308.15 K, x1 = 0.3855	1274.01	1510	3.24
308.15 K, x1 = 0.4611	1303.22	1516	3.41
308.15 K, x1 = 0.545	1333.32	1524	3.54
308.15 K, x1 = 0.6387	1364.4	1530	3.68
308.15 K, x1 = 0.7076	1385.63	1534	3.73
308.15 K, x1 = 0.7823	1407.49	1538	3.81
308.15 K, x1 = 0.8444	1424.52	1544	3.85
308.15 K, x1 = 0.907	1440.98	1547	3.88
308.15 K, x1 = 0.9524	1452.15	1552	3.92
308.15 K, x1 = 1	1463.5	1556	3.94
313.15 K, x1 = 0.013	1089.1	1447	1.64
313.15 K, x1 = 0.0356	1102.07	1449	1.75
313.15 K, x1 = 0.0539	1112.21	1452	1.85
313.15 K, x1 = 0.0982	1136.31	1460	2.06
313.15 K, x1 = 0.1259	1150.73	1464	2.17
313.15 K, x1 = 0.1608	1168.35	1471	2.31
313.15 K, x1 = 0.1982	1186.62	1476	2.45
313.15 K, x1 = 0.2422	1207.12	1483	2.56
313.15 K, x1 = 0.2956	1230.97	1490	2.7
313.15 K, x1 = 0.3855	1268.16	1501	2.88
313.15 K, x1 = 0.4611	1297.1	1510	3
313.15 K, x1 = 0.545	1326.92	1516	3.08
313.15 K, x1 = 0.6387	1357.69	1525	3.14
313.15 K, x1 = 0.7076	1378.66	1530	3.16
313.15 K, x1 = 0.7823	1400.24	1536	3.18
313.15 K, x1 = 0.8444	1417.09	1540	3.18
313.15 K, x1 = 0.907	1433.37	1545	3.18
313.15 K, x1 = 0.9524	1444.43	1549	3.17
313.15 K, x1 = 1	1455.63	1552	3.16
